For 13 compounds, IC50 results are on record in ChEMBL document CHEMBL1131787, “Effects of ortho-substituent groups of sulochrin on inhibitory activity to eosinophil degranulation” (Bioorg Med Chem Lett, 1999).

This test in a line: Inhibitory activity against eosinophil degranulation. It counts as functional.

`CCC(C)OC(=O)c1cc(O)cc(OC)c1C(=O)c1c(O)cc(C)cc1O` (stereo not drawn) had an IC50 of 30 nM.

`COC(=O)c1cc(O)cc(OC)c1C(=O)c1c(OCCO)cc(C)cc1OCCO` registered an IC50 greater than 10000 nM.

For `COC(=O)c1cc(O)cc(O)c1C(=O)c1c(OC)cc(C)cc1OC`, the 50% inhibitory concentration (IC50) was greater than 10000 nM.

Regarding `COc1cc(O)cc(C(=O)O)c1C(=O)c1c(O)cc(C)cc1O`, the IC50 was greater than 10000 nM.

`COC(=O)c1cc(O)cc(OC)c1C(=O)c1c(O)cc(C)cc1O` [SULOCHRIN] displayed an IC50 of 100 nM.

As to `CCOC(=O)c1cc(O)cc(OC)c1C(=O)c1c(O)cc(C)cc1O`, the IC50 amounted to 100 nM.

On to `COc1cc(O)ccc1C(=O)c1c(O)cc(C)cc1O`, for which the IC50 was greater than 10000 nM.

As to `CCCCOC(=O)c1cc(O)cc(OC)c1C(=O)c1c(O)cc(C)cc1O`, the 50% inhibitory concentration (IC50) was 40 nM.

As for `COC(=O)c1cc(O)cc(OC)c1C(=O)c1c(O)cc(C)cc1OC`, it took 300 nM to reach half-maximal inhibition (IC50).

`CCCOC(=O)c1cc(O)cc(OC)c1C(=O)c1c(O)cc(C)cc1O` showed an IC50 of 100 nM.

`COC(=O)c1cc(O)cc(O)c1C(=O)c1c(O)cc(C)cc1O` gave an IC50 greater than 10000 nM.

With `CCCCCCOC(=O)c1cc(O)cc(OC)c1C(=O)c1c(O)cc(C)cc1O`, the concentration for half-maximal inhibition (IC50) turned out to be 300 nM.

With `COC(=O)c1cc(O)cc(O)c1C(=O)c1c(O)cc(C)cc1OC`, half-maximal inhibition (IC50) was put at 400 nM.

The term IC50 denotes the midpoint of a concentration-inhibition curve.
